Measurements: patent US20250073309A1, “METHODS OF TREATMENT OF PEDIATRIC PUBERTY USING ORAL FORMULATIONS OF LEUPROLIDE” (Enteris Biopharma, Inc., priority 2021, published 2025)

Conditions: female, human, in vivo, sc, 1 mg
Procedure: The presently disclosed embodiments may include a technology platform employing enteric coating and permeation enhancement to enable systemic delivery of peptides via the oral route. To determine whether the oral formulation described herein enables systemic delivery of therapeutic doses of the GnRH agonist leuprolide via oral route, a randomized, four-period, four-treatment, crossover pharmacokinetic and food effect study was conducted in 14 healthy female volunteers, which compared PK profiles following single administrations of 1 and 4 mg of leuprolide—the latter under both fasting and fed conditions—to that of a single subcutaneous injection of 1 mg of leuprolide acetate.
Study objectives were to assess the relative bioavailability, dose proportionality, safety and tolerability of orally-administered leuprolide, as well as the effect of food on drug absorption. Frequent blood sampling for 24 hours followed each dose, and each treatment was separated by 7 days. […] The ‘fed’ condition involved consumption of a high-fat, high-calorie meal 30 minutes prior to drug administration.

Question: Which results are given for `CCNC(=O)[C@@H]1CCCN1C(=O)[C@H](CCCNC(=N)N)NC(=O)[C@H](CC(C)C)NC(=O)[C@@H](CC(C)C)NC(=O)[C@H](Cc1ccc(O)cc1)NC(=O)[C@H](CO)NC(=O)[C@H](Cc1c[nH]c2ccccc12)NC(=O)[C@H](Cc1c[nH]cn1)NC(=O)[C@@H]1CCC(=O)N1` [sc leuprolide, leuprolide acetate]?
Answer: Mean AUC0-24h: 163.0 ± 18.8 ng·h/mL; Mean Cmax: 59.4 ± 9.1 ng/mL; Mean Tmax: 3.49 ± 0.23 h
